According to patent US6472348B1, “Pyridone derivatives and herbicides” (Kumiai Chemical Industry Co., Ltd., priority 1996, dated 2002):
Values belong to the molecule of their own block, whether it stands above or below them.

Legend:
[1] = system: barnyardgrass (Ec); assay: Test Example 2: herbicidal effects by upland field soil treatment; assay type: in vivo; conditions: 100 g of the active ingredient per 10 ares;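 also: grade of growth control; 5 = at least 90%; 4 = 70 to 90%; 3 = 50 to 70%; 2 = 30 to 50%; 1 = 10 to 30%; 0 = under 10%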
Excerpt: (§1) (Test on Herbicidal Effects by Upland Field Soil Treatment)

[2] = system: slender amaranth (Am); assay: as above; assay type: in vivo; conditions: 100 g of the active ingredient per 10 ares
Excerpt: as §1

[3] = system: rice flatsedge (Ci); assay: as above; assay type: in vivo; conditions: 100 g of the active ingredient per 10 ares
Excerpt: as §1

[4] = system: common lambsquarters (Ch); assay: as above; assay type: in vivo; conditions: 100 g of the active ingredient per 10 ares
Excerpt: as §1

[5] = system: pale smartweed (Po); assay: as above; assay type: in vivo; conditions: 100 g of the active ingredient per 10 ares
Excerpt: as §1

[6] = system: Digitaria ciliaris (Di); assay: as above; assay type: in vivo; conditions: 100 g of the active ingredient per 10 ares;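 also: grade of growth control; 5 = at least 90%; 4 = 70 to 90%; 3 = 50 to 70%; 2 = 30 to 50%; 1 = 10 to 30%; 0 = under 10%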
Excerpt: as §1

[7] = system: barnyardgrass (Ec); assay: Test Example 1: herbicidal effects by paddy field soil treatment; assay type: in vivo; conditions: 100 g of the active ingredient per 10 ares, 21st day after the application, index 0-5 of Table 47;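 also: grade of growth control; 5 = at least 90%; 4 = 70 to 90%; 3 = 50 to 70%; 2 = 30 to 50%; 1 = 10 to 30%; 0 = under 10%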
How it was run: (§2)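 Scoring of herbicidal effect came 21 days after application of 100 g active ingredient per 10 ares to flooded (3 cm) paddy-soil pots sown with barnyardgrass, monochoria and bulrush, kept in a greenhouse.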

[8] = system: bulrush (Sc); assay: as above; assay type: in vivo; conditions: 100 g of the active ingredient per 10 ares, 21st day after the application, index 0-5 of Table 47;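 also: grade of growth control; 5 = at least 90%; 4 = 70 to 90%; 3 = 50 to 70%; 2 = 30 to 50%; 1 = 10 to 30%; 0 = under 10%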
How it was run: as §2

[9] = system: monochoria (Mo); assay: as above; assay type: in vivo; conditions: 100 g of the active ingredient per 10 ares, 21st day after the application, index 0-5 of Table 47
How it was run: as §2

[10] = system: barnyardgrass (Ec); assay: Test Example 3: herbicidal effects by upland field foliage treatment; assay type: in vivo; design: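 grade of growth control; 5 = at least 90%; 4 = 70 to 90%; 3 = 50 to 70%; 2 = 30 to 50%; 1 = 10 to 30%; 0 = under 10%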
How it was run: (§3)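 Readout: visual herbicidal rating per defined standards, 14th day after treatment. Plants sown in sand (pot area 120 cm^2), soil-covered, greenhouse-cultured for 2 weeks prior to foliage application, then greenhouse-grown until scoring.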

[11] = system: slender amaranth (Am); assay: as above; assay type: in vivo; design: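 grade of growth control; 5 = at least 90%; 4 = 70 to 90%; 3 = 50 to 70%; 2 = 30 to 50%; 1 = 10 to 30%; 0 = under 10%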
How it was run: as §3

[12] = system: rice flatsedge (Ci); assay: as above; assay type: in vivo; design: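 grade of growth control; 5 = at least 90%; 4 = 70 to 90%; 3 = 50 to 70%; 2 = 30 to 50%; 1 = 10 to 30%; 0 = under 10%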
How it was run: as §3

[13] = system: common lambsquarters (Ch); assay: as above; assay type: in vivo; design: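 grade of growth control; 5 = at least 90%; 4 = 70 to 90%; 3 = 50 to 70%; 2 = 30 to 50%; 1 = 10 to 30%; 0 = under 10%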
How it was run: as §3

[14] = system: Diaitaria ciliaris (Di); assay: as above; assay type: in vivo; design: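 grade of growth control; 5 = at least 90%; 4 = 70 to 90%; 3 = 50 to 70%; 2 = 30 to 50%; 1 = 10 to 30%; 0 = under 10%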
How it was run: as §3

[15] = system: pale smartweed (Po); assay: as above; assay type: in vivo; design: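 grade of growth control; 5 = at least 90%; 4 = 70 to 90%; 3 = 50 to 70%; 2 = 30 to 50%; 1 = 10 to 30%; 0 = under 10%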
How it was run: as §3

[16] = 21st day after the application, index 0-5 of Table 47
[17] = 100 g of the active ingredient per 10 ares, evaluated on the 14th day after treatment
[18] = evaluated on the 21st day after application
[19] = 100 g active ingredient per 10 ares, evaluated 14th day after treatment

SMILES: C#CCOc1cc(-c2cc(C)c(C(F)(F)F)n(C)c2=O)c(F)cc1Cl [Compound No. 1-76, 3-(4-chloro-2-fluoro-5-propargyloxyphenyl)-1,5-dimethyl-6-trifluoromethyl-2(1H)-pyridone]
Herbicidal effects Ec [1, 16]: 5 | Herbicidal effects Am [2, 16]: 5 | Herbicidal effects Ci [3, 16]: 5 | Herbicidal effects Ch [4, 16]: 5 | Herbicidal effects Po [5, 16]: 5 | Herbicidal effects Di [6, 16]: 5 | Herbicidal effects Ec [7]: 5 | Herbicidal effects Sc [8]: 5 | Herbicidal effects Mo [9]: 5 | Herbicidal effects Ec [10, 17]: 5 | Herbicidal effects Am [11, 17]: 5 | Herbicidal effects Ci [12, 17]: 5 | Herbicidal effects Ch [13, 17]: 5 | Herbicidal effects Di [14, 17]: 5 | Herbicidal effects Po [15, 17]: 5 | melting point: 107 to 108 °C

SMILES: C#CCn1c(=O)oc2cc(Cl)c(-c3ccc(C(F)(F)F)n(C)c3=O)cc21 [Compound No. 3-9, 3-[6-chloro-3-(2-propynyl)-benzoxazolin-2-on-5-yl]-1-methyl-6-trifluoromethyl-2(1H)-pyridone]
Herbicidal effects Ec [1, 18]: 5 | Herbicidal effects Am [2, 18]: 5 | Herbicidal effects Ci [3, 18]: 5 | Herbicidal effects Ch [4, 18]: 5 | Herbicidal effects Po [5, 18]: 5 | Herbicidal effects Di [6, 18]: 5 | Herbicidal effects Ec [7]: 5 | Herbicidal effects Sc [8]: 5 | Herbicidal effects Mo [9]: 5 | melting point: 187 to 189 °C

SMILES: CCOC(=O)c1cc2c(-c3ccc(C(F)(F)F)n(C)c3=O)c(F)cc(Cl)c2o1 [Compound No. 4-6, 3-(7-chloro-2-ethoxycarbonyl-5-fluorobenzofuran-4-yl)-1-methyl-6-trifluoromethyl-2-(1H)-pyridone]
Herbicidal effects Ec [7]: 5 | Herbicidal effects Sc [8]: 5 | Herbicidal effects Mo [9]: 5 | Herbicidal effects Ec [10, 19]: 5 | Herbicidal effects Am [11, 19]: 5 | Herbicidal effects Ci [12, 19]: 5 | Herbicidal effects Ch [13, 19]: 5 | Herbicidal effects Di [14, 19]: 4 | Herbicidal effects Po [15, 19]: 5 | melting point: 118 to 120 °C

SMILES: Cn1cc(-c2ccc(Cl)cc2Cl)c(=O)cc1C(F)(F)F [Compound No. 6-3, 5-(2,4-dichlorophenyl)-1-methyl-2-trifluoromethyl-4(1H)-pyridone]
melting point: 205 to 206 °C

SMILES: CCOC(=O)c1c(C(F)(F)F)n(C)cc(-c2cc(OC(C)C)c(Cl)cc2F)c1=O [Compound No. 6-42, 5-(4-chloro-2-fluoro-5-isopropoxyphenyl)-3-ethoxycarbonyl-1-methyl-2-trifluoromethyl-4(1H)-pyridone]
melting point: 170 to 172 °C

SMILES: CCOC(=O)c1c(C(F)(F)F)[nH]cc(-c2cc(OC(C)C)c(Cl)cc2F)c1=O [Compound No. 6-57, 5-(4-chloro-2-fluoro-5-isopropoxyphenyl)-3-ethoxycarbonyl-2-trifluoromethyl-4(1H)-pyridone]
melting point: 118 to 119 °C

SMILES: Cn1c(C(F)(F)F)cc(Cl)c(-c2ccc(Cl)cc2)c1=O [Compound No. 11-1, 3-(4-chlorophenyl)-4-chloro-1-methyl-6-trifluoromethyl-2(1H)-pyridone]
melting point: 48 to 50 °C

SMILES: Cn1c(C(F)(F)F)cc(Cl)c(-c2ccc(Cl)c(NS(C)(=O)=O)c2)c1=O [Compound No. 11-3, 3-(4-chloro-3-methylsulfonylaminophenyl)-4-chloro-1-methyl-6-trifluoromethyl-2(1H)-pyridone]
melting point: 161 to 163 °C

SMILES: Cn1c(C(F)(F)F)cc(=O)c(-c2ccc(Cl)cc2)c1Cl [Compound No. 13-1, 3-(4-chlorophenyl)-2-chloro-1-methyl-6-trifluoromethyl-4(1H)-pyridone]
melting point: 88 to 90 °C

Second part, led by results:

melting point: 103 to 104 °C
SMILES: Cn1c(C(F)(F)F)ccc(-c2ccc(Cl)cc2F)c1=O [Compound No. 1-2, 3-(4-chloro-2-fluorophenyl)-1-methyl-6-trifluoromethyl-2(1H)-pyridone]
Herbicidal effects Ec [1, 16]: 5 | Herbicidal effects Am [2, 16]: 5 | Herbicidal effects Ci [3, 16]: 5 | Herbicidal effects Ch [4, 16]: 5 | Herbicidal effects Po [5, 16]: 5 | Herbicidal effects Di [6, 16]: 5 | Herbicidal effects Ec [7]: 5 | Herbicidal effects Sc [8]: 5 | Herbicidal effects Mo [9]: 5 | Herbicidal effects Ec [10, 17]: 5 | Herbicidal effects Am [11, 17]: 5 | Herbicidal effects Ci [12, 17]: 5 | Herbicidal effects Ch [13, 17]: 5 | Herbicidal effects Di [14, 17]: 5 | Herbicidal effects Po [15, 17]: 5

melting point: 98 to 100 °C
SMILES: Nn1c(C(F)(F)F)ccc(-c2ccc(Cl)cc2Cl)c1=O [Compound No. 1-5, 1-amino-3-(2,4-dichlorophenyl)-6-trifluoromethyl-2(1H)-pyridone]
Herbicidal effects Ec [1, 16]: 5 | Herbicidal effects Am [2, 16]: 5 | Herbicidal effects Ci [3, 16]: 5 | Herbicidal effects Ch [4, 16]: 5 | Herbicidal effects Po [5, 16]: 5 | Herbicidal effects Di [6, 16]: 5 | Herbicidal effects Ec [7]: 5 | Herbicidal effects Sc [8]: 5 | Herbicidal effects Mo [9]: 5 | Herbicidal effects Ec [10, 17]: 5 | Herbicidal effects Am [11, 17]: 5 | Herbicidal effects Ci [12, 17]: 5 | Herbicidal effects Ch [13, 17]: 5 | Herbicidal effects Di [14, 17]: 5 | Herbicidal effects Po [15, 17]: 5

melting point: 123 to 124 °C
SMILES: Cn1c(C(F)(F)F)ccc(-c2ccc(F)cc2F)c1=O [Compound No. 1-12, 3-(2,4-difluorophenyl)-1-methyl-6-trifluoromethyl-2(1H)-pyridone]
Herbicidal effects Ec [7]: 5 | Herbicidal effects Sc [8]: 5 | Herbicidal effects Mo [9]: 5

melting point: 139 to 140 °C
SMILES: Cn1c(C(F)(F)F)ccc(-c2cc([N+](=O)[O-])c(Cl)cc2F)c1=O [Compound No. 1-58, 3-(4-chloro-2-fluoro-5-nitrophenyl)-1-methyl-6-trifluoromethyl-2(1H)-pyridone]
Herbicidal effects Ec [7]: 5 | Herbicidal effects Sc [8]: 5 | Herbicidal effects Mo [9]: 5

melting point: 113 to 114 °C
SMILES: Cn1c(C(F)(F)F)ccc(-c2cc(NS(C)(=O)=O)c(Cl)cc2F)c1=O [Compound No. 1-60, 3-(4-chloro-2-fluoro-5-methylsulfonylaminophenyl)-1-methyl-6-trifluoromethyl-2(1H)-pyridone]
Herbicidal effects Ec [1, 16]: 5 | Herbicidal effects Am [2, 16]: 5 | Herbicidal effects Ci [3, 16]: 5 | Herbicidal effects Ch [4, 16]: 5 | Herbicidal effects Po [5, 16]: 5 | Herbicidal effects Di [6, 16]: 5 | Herbicidal effects Ec [7]: 5 | Herbicidal effects Sc [8]: 5 | Herbicidal effects Mo [9]: 5 | Herbicidal effects Ec [10, 17]: 5 | Herbicidal effects Am [11, 17]: 5 | Herbicidal effects Ci [12, 17]: 5 | Herbicidal effects Ch [13, 17]: 5 | Herbicidal effects Di [14, 17]: 5 | Herbicidal effects Po [15, 17]: 5

melting point: 144 to 145 °C
SMILES: Cn1c(C(F)(F)F)ccc(-c2cc(S(C)(=O)=O)c(Cl)cc2F)c1=O [Compound No. 1-73, 3-(4-chloro-2-fluoro-5-methylsulfonylphenyl)-1-methyl-6-trifluoromethyl-2(1H)-pyridone]
Herbicidal effects Ec [1, 16]: 4 | Herbicidal effects Am [2, 16]: 5 | Herbicidal effects Ci [3, 16]: 5 | Herbicidal effects Ch [4, 16]: 5 | Herbicidal effects Po [5, 16]: 5 | Herbicidal effects Di [6, 16]: 5 | Herbicidal effects Ec [7]: 5 | Herbicidal effects Sc [8]: 5 | Herbicidal effects Mo [9]: 5

melting point: 117 to 118 °C
SMILES: Cn1c(C(F)(F)F)ccc(-c2cc(CBr)c(Cl)cc2F)c1=O [Compound No. 1-82, 3-(4-chloro-2-fluoro-5-bromomethylphenyl)-1-methyl-6-trifluoromethyl-2(1H)-pyridone]
Herbicidal effects Ec [1, 16]: 4 | Herbicidal effects Am [2, 16]: 5 | Herbicidal effects Ci [3, 16]: 5 | Herbicidal effects Ch [4, 16]: 5 | Herbicidal effects Po [5, 16]: 5 | Herbicidal effects Di [6, 16]: 5 | Herbicidal effects Ec [7]: 5 | Herbicidal effects Sc [8]: 5 | Herbicidal effects Mo [9]: 5 | Herbicidal effects Ec [10, 17]: 4 | Herbicidal effects Am [11, 17]: 5 | Herbicidal effects Ci [12, 17]: 5 | Herbicidal effects Ch [13, 17]: 5 | Herbicidal effects Di [14, 17]: 5 | Herbicidal effects Po [15, 17]: 5

melting point: 77 to 78 °C
SMILES: Cn1c(C(F)(F)F)ccc(-c2cc(S(=O)(=O)Cl)c(Cl)cc2F)c1=O [Compound No. 1-84, 3-(4-chloro-5-chlorosulfonyl-2-fluorophenyl)-1-methyl-6-trifluoromethyl-2(1H)-pyridone]
Herbicidal effects Ec [10, 17]: 5 | Herbicidal effects Am [11, 17]: 5 | Herbicidal effects Ci [12, 17]: 5 | Herbicidal effects Ch [13, 17]: 5 | Herbicidal effects Di [14, 17]: 5 | Herbicidal effects Po [15, 17]: 5

melting point: 147 to 148 °C
SMILES: Cn1c(C(F)(F)F)ccc(-c2cc([S+](C)[O-])c(Cl)cc2F)c1=O (centres unmarked) [Compound No. 1-88, 3-(4-chloro-2-fluoro-5-methylsulfinylphenyl)-1-methyl-6-trifluoromethyl-2(1H)-pyridone]
Herbicidal effects Ec [1, 16]: 4 | Herbicidal effects Am [2, 16]: 5 | Herbicidal effects Ci [3, 16]: 5 | Herbicidal effects Ch [4, 16]: 5 | Herbicidal effects Po [5, 16]: 5 | Herbicidal effects Di [6, 16]: 5 | Herbicidal effects Ec [7]: 5 | Herbicidal effects Sc [8]: 5 | Herbicidal effects Mo [9]: 5

melting point: 120 to 122 °C
SMILES: CCCC(O)c1cc(-c2ccc(C(F)(F)F)n(C)c2=O)c(F)cc1Cl (centres unmarked) [Compound No. 1-193, 3-[4-chloro-2-fluoro-5-(1-hydroxybutyl)phenyl]-1-methyl-6-trifluoromethyl-2(1H)-pyridone]
Herbicidal effects Ec [1, 18]: 5 | Herbicidal effects Am [2, 18]: 5 | Herbicidal effects Ci [3, 18]: 5 | Herbicidal effects Ch [4, 18]: 5 | Herbicidal effects Po [5, 18]: 5 | Herbicidal effects Di [6, 18]: 5 | Herbicidal effects Ec [7]: 5 | Herbicidal effects Sc [8]: 5 | Herbicidal effects Mo [9]: 5 | Herbicidal effects Ec [10, 19]: 5 | Herbicidal effects Am [11, 19]: 5 | Herbicidal effects Ci [12, 19]: 5 | Herbicidal effects Ch [13, 19]: 5 | Herbicidal effects Di [14, 19]: 5 | Herbicidal effects Po [15, 19]: 5

melting point: 120 to 122 °C
SMILES: Cn1c(C(F)(F)F)cc(F)c(-c2ccc(Cl)cc2)c1=O [Compound No. 11-2, 3-(4-chlorophenyl)-4-fluoro-1-methyl-6-trifluoromethyl-2(1H)-pyridone]
